ChEMBL document CHEMBL1156946, “Synthesis and SAR of derivatives based on 2-biarylethylimidazole as bombesin receptor subtype-3 (BRS-3) agonists for the treatment of obesity” (Bioorg Med Chem Lett, 2010)

Experiments:
[1] = biological target: T1, Bombesin receptor subtype-3 (Mus musculus, UniProt O54798); assay: Agonist activity at mouse BRS-3 expressed in HEK293 cells coexpressing AEQ over 10 mins by aequorin bioluminescence assay; assay type: functional, cell-based
T1 sequence (O54798 whole entry): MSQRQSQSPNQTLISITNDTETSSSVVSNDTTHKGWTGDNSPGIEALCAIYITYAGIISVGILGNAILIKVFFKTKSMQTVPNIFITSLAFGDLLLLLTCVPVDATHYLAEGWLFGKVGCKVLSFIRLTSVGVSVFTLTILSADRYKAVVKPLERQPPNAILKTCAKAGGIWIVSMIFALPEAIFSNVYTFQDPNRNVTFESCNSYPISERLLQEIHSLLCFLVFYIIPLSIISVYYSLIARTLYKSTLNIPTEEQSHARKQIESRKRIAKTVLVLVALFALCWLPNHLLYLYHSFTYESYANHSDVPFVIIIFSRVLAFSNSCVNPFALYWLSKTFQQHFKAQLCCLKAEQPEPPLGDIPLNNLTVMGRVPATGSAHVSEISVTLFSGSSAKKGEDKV

[2] = biological target: T2, Bombesin receptor subtype-3 (Homo sapiens, UniProt P32247); assay: biochemical; assay type: cell-based, CHO
T2 sequence (P32247 whole entry): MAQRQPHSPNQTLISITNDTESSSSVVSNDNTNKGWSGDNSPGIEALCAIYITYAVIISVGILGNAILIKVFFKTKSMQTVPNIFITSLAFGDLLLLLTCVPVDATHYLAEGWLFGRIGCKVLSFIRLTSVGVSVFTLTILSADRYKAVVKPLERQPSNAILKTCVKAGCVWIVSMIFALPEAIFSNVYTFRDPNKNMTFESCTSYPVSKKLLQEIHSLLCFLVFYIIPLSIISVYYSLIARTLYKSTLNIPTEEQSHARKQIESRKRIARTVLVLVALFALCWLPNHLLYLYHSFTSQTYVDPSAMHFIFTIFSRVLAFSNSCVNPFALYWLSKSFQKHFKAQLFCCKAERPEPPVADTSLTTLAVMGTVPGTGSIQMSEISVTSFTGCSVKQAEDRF
Description: Displacement of [125I]D-Tyr6-betaAla11-Phe13-Nle14-bombesin from human BRS-3 expressed in NFAT-CHO cells after 2 hrs by scintillation counting

[3] = biological target: T1, Bombesin receptor subtype-3; assay: Agonist activity at mouse BRS-3 expressed in HEK293 cells coexpressing AEQ over 10 mins by aequorin bioluminescence assay relative to D-Tyr6-betaAla11-Phe13-Nle14-bombesin; assay type: functional, cell-based
[4] = biological target: T2, Bombesin receptor subtype-3; assay: Agonist activity at human BRS-3 expressed in HEK293 cells coexpressing AEQ over 10 mins by aequorin bioluminescence assay relative to D-Tyr6-betaAla11-Phe13-Nle14-bombesin; assay type: functional, cell-based
[5] = biological target: T2, Bombesin receptor subtype-3; assay: Agonist activity at human BRS-3 expressed in HEK293 cells coexpressing AEQ over 10 mins by aequorin bioluminescence assay; assay type: functional, cell-based
[6] = Drug level in rat brain at 1 mg/kg, iv after 1 hr; assay type: ADME, organism-based; set-up: dose 1 mg/kg, route intravenous; conditions: read-out: Drug uptake
[7] = Ratio of drug level in rat brain to plasma at 1 mg/kg, iv after 1 hr; assay type: ADME, organism-based; set-up: dose 1 mg/kg, route intravenous
[8] = Drug level in rat plasma at 1 mg/kg, iv after 1 hr; assay type: ADME, organism-based; set-up: dose 1 mg/kg, route intravenous

Structure (SMILES) | EC50 [1] [nM] | IC50 [2] [nM] | Emax [3] [%] | Emax [4] [%] | EC50 [5] [nM] | concentration at 1 h [6] [nM] | Kp at 1 h [7] | concentration at 1 h [8] [nM]
CCC(C)(C)Cc1cnc(CCc2ccc(-c3cccnc3)cc2)[nH]1 | 4.3 | 7.5 | 97 | 98 | 131 | – | – | –
CCC(C)(C)Cc1cnc(CCc2ccc(-n3cncn3)cc2)[nH]1 | 12 | 340 | 121 | 89 | 570 | 80 | 0.4 | 200
CCC(C)(C)Cc1c[nH]c(CCc2ccc(-n3cccn3)cc2)n1 | 9 | – | 113 | 106 | 135 | 20 | 0.67 | 30
CCC(C)(C)Cc1cnc(CCc2ccc(-c3cccnc3C(=O)O)cc2)[nH]1 | 14 | 560 | 97 | 95 | 1260 | – | – | –
CCC(C)(C)Cc1c[nH]c(CCc2ccc(-c3ccns3)cc2)n1 | 3.1 | 11 | 103 | 102 | 63 | – | – | –
CCC(C)(C)Cc1cnc(CCc2ccc(N3CCCCC3)cc2)[nH]1 | 28 | 28 | 133 | 108 | 171 | – | – | –
CCC(C)(C)Cc1cnc(CCc2ccc(-c3cccc(C#N)n3)cc2)[nH]1 | 26 | 140 | 115 | 95 | 193 | – | – | –
CCC(C)(C)Cc1cnc(CCc2ccc(-n3ccnn3)cc2)[nH]1 | 57 | 390 | 111 | 93 | 641 | – | – | –
CCC(C)(C)Cc1cnc(CCc2ccc(-c3cnsc3)cc2)[nH]1 | 6.9 | 10 | 119 | 100 | 44 | 230 | 0.42 | 540
CCC(C)(C)Cc1cnc(CCc2ccc(-c3csnn3)cc2)[nH]1 | 11 | 45 | 109 | 104 | 538 | – | – | –
CCC(C)(C)Cc1cnc(CCc2ccc(-c3ccncc3)cc2)[nH]1 | 15 | 101 | 103 | 95 | 305 | – | – | –
CCC(C)(C)Cc1cnc(CCc2ccc(-c3ccc(F)cn3)cc2)[nH]1 | 16 | 19 | 105 | 97 | 66 | – | – | –
CCC(C)(C)Cc1c[nH]c(CCc2ccc(-c3ccccc3C(=O)O)cc2)n1 | – | 11 | 94 | 101 | – | – | – | –
CCC(C)(C)Cc1c[nH]c(CCc2ccc(-n3ncnn3)cc2)n1 | 25 | 205 | 99 | 89 | 422 | – | – | –

The remaining lines, values ahead:

EC50 [1] [nM] | IC50 [2] [nM] | Emax [3] [%] | Emax [4] [%] | EC50 [5] [nM] | concentration at 1 h [6] [nM] | Kp at 1 h [7] | concentration at 1 h [8] [nM] | Structure (SMILES)
11 | 51 | 107 | 100 | 431 | – | – | – | CCC(C)(C)Cc1c[nH]c(CCc2ccc(-c3cnccn3)cc2)n1
19 | – | 106 | 102 | 105 | – | – | – | CCC(C)(C)Cc1c[nH]c(CCc2ccc(-c3cccc(C)n3)cc2)n1
4.7 | 36 | 96 | 103 | 63 | – | – | – | O=C(O)c1cc(F)c(F)cc1-c1ccc(CCc2nc(CC3CCCCC3)c[nH]2)cc1
11 | 51 | 91 | 100 | 169 | – | – | – | CCC(C)(C)Cc1c[nH]c(CCc2ccc(-c3cccc(O)n3)cc2)n1
22 | 177 | 103 | 98 | 425 | 30 | 0.77 | 39 | c1ccc(-c2ccc(CCc3nc(CC4CCCC4)c[nH]3)cc2)nc1
305 | 2820 | 90 | 15 | 5230 | – | – | – | CCC(C)(C)Cc1c[nH]c(CCc2ccc(-c3cccc(C(=O)O)n3)cc2)n1
3.9 | 7.3 | 119 | 97 | 37 | – | – | – | CCC(C)(C)Cc1c[nH]c(CCc2ccc(-c3cccc(N)n3)cc2)n1
